The values that follow come from patent US10550127B1, “Indanylaminoazadihydrobenzofuranylacetic acids, pharmaceutical compositions for the treatment of diabetes” (Boehringer Ingelheim International GmbH, priority 2017, dated 2020).

This test deals with human GPR40 receptor (Homo sapiens (Human), UniProt O14842). The experiment in a line: IP1 accumulation measurements using the IPOne assay system. Format: cell-based. The note with it: 1321N1 cells stably expressing human GPR40, 1 h stimulation. The procedure: IP1 accumulation measurements using the IPOne assay system—1321N1 cells stably expressing human GPR40 receptor (Euroscreen, Belgium) are seeded 24 h before the assay in white 384-well plates in culture medium containing 10% FCS, 1% Na-Pyruvate and 400 μg/mL G418. IP1 is assayed according to the manufacturer's description (Cisbio Bioassays, France). In brief, the assay is started by substitution of the culture medium by stimulation buffer (Hepes 10 mM, CaCl2) 1 mM, MgCl2 0.5 mM, KCl 4.2 mM, NaCl 146 mM, glucose 5.5 mM and LiCl 50 mM, pH 7.4). Cells are stimulated for 1 h at 37° C., 5% CO2 by addition of the compounds that are diluted in stimulation buffer containing LiCl. Assays are stopped by adding HTRF-conjugates (IP1-d2 and Anti-IP1 cryptate Tb) and lysis buffer, provided by the manufacturer. After an incubation time of 1 h at room temperature plates are measured using an EnVision™, Perkin Elmer. The obtained fluorescence ratios at 665/615 […] are then used to calculate the pEC50 values using Assay Explorer 3.3 Software (Accelrys, Inc.) by interpolation using an IP1 reference curve and subsequent sigmoidal curve fitting allowing for a variable hill slope.
Chain of human GPR40 receptor (O14842 whole entry): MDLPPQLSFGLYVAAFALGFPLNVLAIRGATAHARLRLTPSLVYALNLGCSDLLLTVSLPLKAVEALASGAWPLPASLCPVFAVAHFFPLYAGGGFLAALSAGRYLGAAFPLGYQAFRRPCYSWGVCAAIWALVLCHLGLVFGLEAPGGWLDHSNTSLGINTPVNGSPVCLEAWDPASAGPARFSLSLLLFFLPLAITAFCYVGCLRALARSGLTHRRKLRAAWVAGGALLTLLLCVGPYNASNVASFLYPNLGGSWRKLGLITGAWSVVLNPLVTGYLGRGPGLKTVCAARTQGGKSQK

Regarding `Cc1cc(OCC2CCOC2)cc(C)c1-c1ccc(F)c2c1CC[C@H]2Nc1cc2c(cn1)[C@H](CC(=O)O)CO2` (stereo partly drawn) [Example 14, ((S)-6-{(R)-4-[2,6-Dimethyl-4-(tetrahydro-furan-3-ylmethoxy)-phenyl]-7-fluoro-indan-1-ylamino}-2,3-dihydro-furo[3,2-c]pyridin-3-yl)-acetic Acid], the EC50 is 0.027 µM. This counts as double-digit nanomolar.

As for `Cc1cc(-c2ccc(=O)n(C)c2)cc(C)c1-c1ccc(F)c2c1CC[C@H]2Nc1cc2c(cn1)[C@H](CC(=O)O)CO2` [Example 19, ((S)-6-{(R)-4-[2,6-Dimethyl-4-(1-methyl-6-oxo-1,6-dihydro-pyridin-3-yl)-phenyl]-7-fluoro-indan-1-ylamino}-2,3-dihydro-furo[3,2-c]pyridin-3-yl)-acetic Acid], the EC50 was 0.027 µM.

In the case of `Cc1cc(O[C@@H]2CCOC2)cc(C)c1-c1ccc(F)c2c1CC[C@H]2Nc1cc2c(cn1)[C@H](CC(=O)O)CO2` [Example 9, [(S)-6-((R)-4-{2,6-Dimethyl-4-[(R)-(tetrahydro-furan-3-yl)oxy]-phenyl}-7-fluoro-indan-1-ylamino)-2,3-dihydro-furo[3,2-c]pyridin-3-yl]-acetic Acid], a half-maximal effect (EC50) was put at 0.057 µM.

Consider `Cc1cc(OCC2(C)COC2)cc(C)c1-c1ccc(F)c2c1CC[C@H]2Nc1cc2c(cn1)[C@H](CC(=O)O)CO2` [Example 11, ((S)-6-{(R)-4-[2,6-Dimethyl-4-(3-methyl-oxetan-3-ylmethoxy)-phenyl]-7-fluoro-indan-1-ylamino}-2,3-dihydro-furo[3,2-c]pyridin-3-yl)-acetic Acid], for which it took 0.037 µM to reach a half-maximal effect (EC50).

Regarding `Cc1cc(-c2nnn(CC(C)(C)O)n2)cc(C)c1-c1ccc(F)c2c1CC[C@H]2Nc1cc2c(cn1)[C@H](CC(=O)O)CO2` [Example 15, [(S)-6-((R)-7-Fluoro-4-{4-[2-(2-hydroxo-2-methyl-propyl)-2H-tetrazol-5-yl]-2,6-dimethyl-phenyl}-indan-1-ylamino)-2,3-dihydro-furo[3,2-c]pyridin-3-yl]-acetic acid], the EC50 turned out to be 0.009 µM.

`Cc1cc(-c2cc(=O)n(C)cn2)cc(C)c1-c1ccc(F)c2c1CC[C@H]2Nc1cc2c(cn1)[C@H](CC(=O)O)CO2` [Example 18, ((S)-6-{(R)-4-[2,6-Dimethyl-4-(1-methyl-6-oxo-1,6-dihydro-pyrimidin-4-yl)-phenyl]-7-fluoro-indan-1-ylamino}-2,3-dihydro-furo[3,2-c]pyridin-3-yl)-acetic Acid] came in with an EC50 of 0.014 µM.

`Cc1cc(OCCC(C)(C)O)cc(C)c1-c1cccc2c1CC[C@H]2Nc1cc2c(cn1)[C@@H](CC(=O)O)CO2` [Example 4, ((R)-6-{(R)-4-[4-(3-Hydroxy-3-methyl-butoxy)-2,6-dimethyl-phenyl]-indan-1-ylamino}-2,3-dihydro-furo[3,2-c]pyridin-3-yl)-acetic acid] displayed a concentration giving a half-maximal response (EC50) of 0.751 µM.

On to `Cc1cc(OCCC(C)(C)O)cc(C)c1-c1ccc(F)c2c1CC[C@H]2Nc1cc2c(cn1)[C@@H](CC(=O)O)CO2` [Example 2, ((R)-6-{(R)-7-Fluoro-4-[4-(3-hydroxy-3-methyl-butoxy)-2,6-dimethyl-phenyl]-indan-1-ylamino}-2,3-dihydro-furo[3,2-c]pyridin-3-yl)-acetic Acid], for which the EC50 is 0.764 µM.

For `Cc1cc(OC2CCOCC2)cc(C)c1-c1ccc(F)c2c1CC[C@H]2Nc1cc2c(cn1)[C@H](CC(=O)O)CO2` [Example 10, ((S)-6-{(R)-4-[2,6-Dimethyl-4-(tetrahydro-pyran-4-yloxy)-phenyl]-7-fluoro-indan-1-ylamino}-2,3-dihydro-furo[3,2-c]pyridin-3-yl)-acetic Acid], a half-maximal effect (EC50) was put at 0.056 µM.

`Cc1cc(-c2cnccn2)cc(C)c1-c1ccc(F)c2c1CC[C@H]2Nc1cc2c(cn1)[C@H](CC(=O)O)CO2` [Example 20, {(S)-6-[(R)-4-(2,6-Dimethyl-4-pyrazin-2-yl-phenyl)-7-fluoro-indan-1-ylamino]-2,3-dihydro-furo[3,2-c]pyridin-3-yl}-acetic acid] registered an EC50 of 0.009 µM.

Molecule `Cc1cc(-c2nnn(C)n2)cc(C)c1-c1cccc2c1CC[C@H]2Nc1cc2c(cn1)[C@@H](CC(=O)O)CO2` [Example 8, ((R)-6-{(R)-4-[2,6-Dimethyl-4-(2-methyl-2H-tetrazol-5-yl)-phenyl]-indan-1-ylamino}-2,3-dihydro-furo[3,2-c]pyridin-3-yl)-acetic acid] came in with an EC50 of 0.378 µM.

The molecule `Cc1cc(OCCC(C)(C)O)cc(C)c1-c1cccc2c1CC[C@H]2Nc1cc2c(cn1)[C@H](CC(=O)O)CO2` [Example 3, ((S)-6-{(R)-4-[4-(3-Hydroxy-3-methyl-butoxy)-2,6-dimethyl-phenyl]-indan-1-ylamino}-2,3-dihydro-furo[3,2-c]pyridin-3-yl)-acetic Acid] gave an EC50 of 0.021 µM.

As to `Cc1cc(-c2nnn(C)n2)cc(C)c1-c1cccc2c1CC[C@H]2Nc1cc2c(cn1)[C@H](CC(=O)O)CO2` [Example 7, ((S)-6-{(R)-4-[2,6-Dimethyl-4-(2-methyl-2H-tetrazol-5-yl)-phenyl]-indan-1-ylamino}-2,3-dihydro-furo[3,2-c]pyridin-3-yl)-acetic Acid], the EC50 was 0.007 µM. This EC50 is about 3-fold lower than that of the molecule before.

As for `Cc1cc(O[C@H]2CCOC2)cc(C)c1-c1ccc(F)c2c1CC[C@H]2Nc1cc2c(cn1)[C@H](CC(=O)O)CO2` [Example 12, [(S)-6-((R)-4-{2,6-Dimethyl-4-[(S)-(tetrahydro-furan-3-yl)oxy]-phenyl}-7-fluoro-indan-1-ylamino)-2,3-dihydro-furo[3,2-c]pyridin-3-yl]-acetic Acid], the EC50 is 0.073 µM.

Consider `Cc1cc(-c2ccn(C)c(=O)c2)cc(C)c1-c1ccc(F)c2c1CC[C@H]2Nc1cc2c(cn1)[C@H](CC(=O)O)CO2` [Example 17, ((S)-6-{(R)-4-[2,6-Dimethyl-4-(1-methyl-2-oxo-1,2-dihydro-pyridin-4-yl)-phenyl]-7-fluoro-indan-1-ylamino}-2,3-dihydro-furo[3,2-c]pyridin-3-yl)-acetic Acid], for which a half-maximal effect (EC50) was put at 0.012 µM.

Take `Cc1cc(-c2nnn(C)n2)cc(C)c1-c1ccc(F)c2c1CC[C@H]2Nc1cc2c(cn1)[C@@H](CC(=O)O)CO2` [Example 6, ((R)-6-{(R)-4-[2,6-Dimethyl-4-(2-methyl-2H-tetrazol-5-yl)-phenyl]-7-fluoro-indan-1-ylamino}-2,3-dihydro-furo[3,2-c]pyridin-3-yl)-acetic Acid]: the EC50 was found to be 0.382 µM. Compared with the last molecule, the EC50 is about 32-fold higher.

The molecule `Cc1cc(-c2ccn(C)c(=O)n2)cc(C)c1-c1ccc(F)c2c1CC[C@H]2Nc1cc2c(cn1)[C@H](CC(=O)O)CO2` [Example 16, ((S)-6-{(R)-4-[2,6-Dimethyl-4-(1-methyl-2-oxo-1,2-dihydro-pyrimidin-4-yl)-phenyl]-7-fluoro-indan-1-ylamino}-2,3-dihydro-furo[3,2-c]pyridin-3-yl)-acetic acid] showed an EC50 of 0.027 µM. Against the preceding molecule, the EC50 is about 14-fold lower.

For `Cc1cc(OCC(C)(C)O)cc(C)c1-c1ccc(F)c2c1CC[C@H]2Nc1cc2c(cn1)[C@H](CC(=O)O)CO2` [Example 13, ((S)-6-{(R)-7-Fluoro-4-[4-(2-hydroxo-2-methyl-propoxy)-2,6-dimethyl-phenyl]-indan-1-ylamino}-2,3-dihydro-furo[3,2-c]pyridin-3-yl)-acetic Acid], the midpoint of the response, the EC50, lay at 0.035 µM.

A word on the EC50: it is the concentration that produces a half-maximal response.
